# Laboratory results as given in ChEMBL document CHEMBL4715829, “Heterodimeric Rifampicin-Tobramycin conjugates break intrinsic resistance of Pseudomonas aeruginosa to doxycycline and chloramphenicol in vitro and in a Galleria mellonella in vivo model” (Eur J Med Chem, 2019).
# The source made the active and inactive calls. No cut-off for these calls is given here.
# Assays:
# Pseudomonas aeruginosa [1] = test: Antibacterial activity against Pseudomonas aeruginosa 100036 assessed as reduction in bacterial growth by measuring doxycycline MIC at 8 ug/ml incubated for 18 hrs in presence of doxycycline by broth microdilution assay (reference value: 64 ug/ml); format: functional; conditions: dose 8 µg/ml
# Pseudomonas aeruginosa [2] = test: Antibacterial activity against Pseudomonas aeruginosa 264-101354 assessed as reduction in bacterial growth by measuring chloramphenicol MIC at 8 ug/ml incubated for 18 hrs in presence of chloramphenicol by broth microdilution assay (reference value: 4096 ug/ml); format: functional; conditions: dose 8 µg/ml
# Pseudomonas aeruginosa [3] = test: Antibacterial activity against Pseudomonas aeruginosa 262-101856 assessed as fractional inhibitory concentration incubated for 18 hrs in presence of doxycycline by broth microdilution assay; format: functional
# Pseudomonas aeruginosa [4] = test: Antibacterial activity against Pseudomonas aeruginosa 100036 assessed as fractional inhibitory concentration incubated for 18 hrs in presence of doxycycline by broth microdilution assay; format: functional
# Pseudomonas aeruginosa [5] = test: Antibacterial activity against Pseudomonas aeruginosa 264-101354 assessed as fractional inhibitory concentration incubated for 18 hrs in presence of doxycycline by broth microdilution assay; format: functional
# Pseudomonas aeruginosa [6] = test: Potentiation of doxycycline-induced antibacterial activity against Pseudomonas aeruginosa 114228 assessed as fold change in doxycycline MIC at 9.8 uM incubated for 18 hrs in presence of doxycycline by broth microdilution assay relative to control; format: functional
# Escherichia coli [7] = test: Antibacterial activity against Escherichia coli ATCC 25922 assessed as fractional inhibitory concentration index in presence of doxycycline incubated for 18 hrs by broth microdilution assay; format: functional
# Acinetobacter baumannii [8] = test: Antibacterial activity against Acinetobacter baumannii ATCC 17978 assessed as fractional inhibitory concentration index in presence of doxycycline incubated for 18 hrs by broth microdilution assay; format: functional
# Pseudomonas aeruginosa [9] = test: Antibacterial activity against Pseudomonas aeruginosa 260-97103 infected in Galleria mellonella larvae assessed as survival of larvae treated at 3 hrs post-infection in presence of doxycycline and measured every 6 hrs for 36 hrs; format: functional, organism-based; conditions: dose 75-100 mg/kg
# Escherichia coli [10] = test: Antibacterial activity against Escherichia coli ATCC 25922 assessed as potentiation of chloramphenicol-induced antibacterial activity by measuring chloramphenicol MIC at 10 uM incubated for 18 hrs in presence of chloramphenicol by broth microdilution assay (reference value: 2 ug/ml); format: functional
# Enterobacter cloacae [11] = test: Antibacterial activity against Enterobacter cloacae ATCC 117029 assessed as potentiation of doxycycline-induced antibacterial activity by measuring doxycycline MIC at 10 uM incubated for 18 hrs in presence of doxycycline by broth microdilution assay (reference value: 64 ug/ml); format: functional
# Escherichia coli [12] = test: Antibacterial activity against Escherichia coli ATCC 25922 assessed as fractional inhibitory concentration index in presence of chloramphenicol incubated for 18 hrs by broth microdilution assay; format: functional
# Pseudomonas aeruginosa [13] = test: Antibacterial activity against Pseudomonas aeruginosa 101243 assessed as fractional inhibitory concentration index incubated for 18 hrs in presence of rifampicin by broth microdilution assay; format: functional
# Pseudomonas aeruginosa [14] = test: Antibacterial activity against Pseudomonas aeruginosa 114228 assessed as fractional inhibitory concentration index in presence of chloramphenicol incubated for 18 hrs by broth microdilution assay; format: functional
# Pseudomonas aeruginosa [15] = test: Potentiation of chloramphenicol-induced antibacterial activity against Pseudomonas aeruginosa 101885 assessed as fold change in chloramphenicol MIC at 9.8 uM incubated for 18 hrs in presence of chloramphenicol by broth microdilution assay relative to control; format: functional
# Enterobacter cloacae [16] = test: Antibacterial activity against Enterobacter cloacae ATCC 117029 assessed as fractional inhibitory concentration index in presence of chloramphenicol incubated for 18 hrs by broth microdilution assay; format: functional
# Pseudomonas aeruginosa [17] = test: Potentiation of doxycycycline-induced bactericidal activity against Pseudomonas aeruginosa PAO1 assessed as reduction in bacterial colonies at 4.9 to 9.8 microM incubated for upto 24 hrs in LB medium in presence of doxycycline followed by plating on agar plate and measured after 20 hrs by time-kill assay; format: functional, organism-based; conditions: dose 4.9-9.8 µM, time hrs <=44
# Acinetobacter baumannii [18] = test: Antibacterial activity against Acinetobacter baumannii ATCC 17978 assessed as potentiation of chloramphenicol-induced antibacterial activity by measuring chloramphenicol MIC at 10 uM incubated for 18 hrs in presence of chloramphenicol by broth microdilution assay (reference value: 64 ug/ml); format: functional
# Pseudomonas aeruginosa [19] = test: Antibacterial activity against Pseudomonas aeruginosa 91433 assessed as fractional inhibitory concentration incubated for 18 hrs in presence of rifampicin by broth microdilution assay; format: functional
# Acinetobacter baumannii [20] = test: Antibacterial activity against Acinetobacter baumannii ATCC 17978 assessed as reduction in bacterial growth incubated for 18 hrs by broth microdilution assay; format: functional
# Pseudomonas aeruginosa [21] = test: Potentiation of doxycycline-induced antibacterial activity against Pseudomonas aeruginosa 262-101856 assessed as fold change in doxycycline MIC at 9.8 uM incubated for 18 hrs in presence of doxycycline by broth microdilution assay relative to control; format: functional
# Pseudomonas aeruginosa [22] = test: Potentiation of chloramphenicol-induced antibacterial activity against Pseudomonas aeruginosa PAO1 incubated for 18 hrs in presence of chloramphenicol by broth microdilution assay; format: functional, organism-based; conditions: dose 1-32 µg/ml
# Pseudomonas aeruginosa [23] = test: Potentiation of chloramphenicol-induced antibacterial activity against Pseudomonas aeruginosa 260-97103 incubated for 18 hrs in presence of chloramphenicol by broth microdilution assay; format: functional, organism-based; conditions: dose 1-32 µg/ml
# Pseudomonas aeruginosa [24] = test: Potentiation of doxycycycline-induced bactericidal activity against Pseudomonas aeruginosa PAO1 assessed as reduction in bacterial colonies incubated for >= 24 hrs in LB medium in presence of doxycycline followed by plating on agar plate and measured after 20 hrs by time-kill assay; format: functional, organism-based; conditions: dose 4.9-9.8 µM, time hrs >=44
# Pseudomonas aeruginosa [25] = test: Potentiation of chloramphenicol-induced antibacterial activity against Pseudomonas aeruginosa 264-101354 incubated for 18 hrs in presence of chloramphenicol by broth microdilution assay; format: functional, organism-based; conditions: dose 1-32 µg/ml
# Klebsiella pneumoniae = test: Antibacterial activity against Klebsiella pneumoniae ATCC 16381 assessed as fractional inhibitory concentration index in presence of chloramphenicol incubated for 18 hrs by broth microdilution assay; format: functional
# Escherichia coli [26] = test: Antibacterial activity against Escherichia coli ATCC 25922 assessed as potentiation of doxycycline-induced antibacterial activity by measuring doxycycline MIC at 10 uM incubated for 18 hrs in presence of doxycycline by broth microdilution assay (reference value: 0.5 ug/ml); format: functional
# Acinetobacter baumannii [27] = test: Antibacterial activity against Acinetobacter baumannii ATCC 17978 assessed as potentiation of doxycycline-induced antibacterial activity by measuring doxycycline MIC at 10 uM incubated for 18 hrs in presence of doxycycline by broth microdilution assay (reference value: 0.25 ug/ml); format: functional
# Acinetobacter baumannii [28] = test: Antibacterial activity against Acinetobacter baumannii ATCC 17978 assessed as fractional inhibitory concentration index in presence of chloramphenicol incubated for 18 hrs by broth microdilution assay; format: functional
# Pseudomonas aeruginosa [29] = test: Antibacterial activity against Pseudomonas aeruginosa 100036 assessed as potentiation of chloramphenicol-induced antibacterial activity by measuring chloramphenicol MIC at 9.8 uM incubated for 18 hrs in presence of chloramphenicol by broth microdilution assay (reference value: 1024 ug/ml); format: functional
# Pseudomonas aeruginosa [30] = test: Antibacterial activity against Pseudomonas aeruginosa 101243 assessed as potentiation of doxycycline-induced antibacterial activity by measuring doxycycline MIC at 7.6 uM incubated for 18 hrs in presence of doxycycline by broth microdilution assay (reference value: 4 ug/ml); format: functional
# Pseudomonas aeruginosa [31] = test: Antibacterial activity against Pseudomonas aeruginosa 262-101856 assessed as reduction in bacterial growth by measuring doxycycline MIC at 16 ug/ml incubated for 18 hrs in presence of doxycycline by broth microdilution assay (reference value: 1024 ug/ml); format: functional; conditions: dose 16 µg/ml
Structure (SMILES),FIC (Pseudomonas aeruginosa [3]),FIC (Pseudomonas aeruginosa [4]),FIC (Pseudomonas aeruginosa [5]),fractional inhibitory concentration index (FICI) (Escherichia coli [7]),fractional inhibitory concentration index (FICI) (Acinetobacter baumannii [8]),MIC (Escherichia coli [10]) [µg/mL],MIC (Enterobacter cloacae [11]) [µg/mL],fractional inhibitory concentration index (FICI) (Escherichia coli [12]),fractional inhibitory concentration index (FICI) (Pseudomonas aeruginosa [14]),fractional inhibitory concentration index (FICI) (Enterobacter cloacae [16]),MIC (Acinetobacter baumannii [18]) [µg/mL],MIC (Acinetobacter baumannii [20]) [µg/mL],Activity (Pseudomonas aeruginosa [22]),Activity (Pseudomonas aeruginosa [23]),Activity (Pseudomonas aeruginosa [25]),fractional inhibitory concentration index (FICI) (Klebsiella pneumoniae),MIC (Escherichia coli [26]) [µg/mL],MIC (Acinetobacter baumannii [27]) [µg/mL],fractional inhibitory concentration index (FICI) (Acinetobacter baumannii [28]),other results
NC[C@H]1O[C@H](O[C@H]2[C@H](O)[C@@H](O[C@H]3O[C@H](CO)[C@@H](O)[C@H](N)[C@H]3O)[C@H](N)C[C@@H]2N)[C@H](N)C[C@@H]1O [TOBRAMYCIN],<=0.5,0.5,0.5,,,,,,,,,,,,,,,,,MIC (Pseudomonas aeruginosa [1]): 64 µg/mL; MIC (Pseudomonas aeruginosa [2]): 4100 µg/mL
CO[C@H]1/C=C/O[C@@]2(C)Oc3c(C)c(O)c4c(O)c(c(/C=N/N5CCN(Cc6cn(CCCCCCO[C@@H]7[C@@H](O[C@H]8O[C@H](CO)[C@@H](O)[C@H](N)[C@H]8O)[C@H](N)C[C@H](N)[C@H]7O[C@H]7O[C@H](CN)[C@@H](O)C[C@H]7N)nn6)CC5)c(O)c4c3C2=O)NC(=O)/C(C)=C\C=C\[C@H](C)[C@H](O)[C@@H](C)[C@@H](O)[C@@H](C)[C@H](OC(C)=O)[C@@H]1C.Cl.Cl.Cl.Cl.Cl,,,,0.5,1.25,1,16,0.75,<0.281,0.375,32,64,Dose-dependent effect,Dose-dependent effect,Dose-dependent effect,<0.375,0.125,0.25,0.75,fold change (FC) (Pseudomonas aeruginosa [6]): 4; Activity (Pseudomonas aeruginosa [9]): Dose-dependent effect; fractional inhibitory concentration index (FICI) (Pseudomonas aeruginosa [13]): 0.56; fold change (FC) (Pseudomonas aeruginosa [15]): 4; Activity (Pseudomonas aeruginosa [17]): Active; FIC (Pseudomonas aeruginosa [19]): <0.125; fold change (FC) (Pseudomonas aeruginosa [21]): 4; Activity (Pseudomonas aeruginosa [24]): Dose-dependent effect; MIC (Pseudomonas aeruginosa [29]): 4 µg/mL
CO[C@H]1/C=C/O[C@@]2(C)Oc3c(C)c(O)c4c(O)c(c(/C=N/N5CCN(Cc6cn(CCCCCCCCCCCCO[C@@H]7[C@@H](O[C@H]8O[C@H](CO)[C@@H](O)[C@H](N)[C@H]8O)[C@H](N)C[C@H](N)[C@H]7O[C@H]7O[C@H](CN)[C@@H](O)C[C@H]7N)nn6)CC5)c(O)c4c3C2=O)NC(=O)/C(C)=C\C=C\[C@H](C)[C@H](O)[C@@H](C)[C@@H](O)[C@@H](C)[C@H](OC(C)=O)[C@@H]1C.O=C(O)C(F)(F)F.O=C(O)C(F)(F)F.O=C(O)C(F)(F)F.O=C(O)C(F)(F)F.O=C(O)C(F)(F)F,,,,0.625,1.25,1,32,0.625,<0.156,0.375,64,64,Dose-dependent effect,Dose-dependent effect,Dose-dependent effect,<0.281,0.25,0.25,0.75,MIC (Pseudomonas aeruginosa [30]): 0.125 µg/mL
CO[C@H]1/C=C/O[C@@]2(C)Oc3c(C)c(O)c4c(O)c(c(/C=N/N5CCN(C)CC5)c(O)c4c3C2=O)NC(=O)/C(C)=C\C=C\[C@H](C)[C@H](O)[C@@H](C)[C@@H](O)[C@@H](C)[C@H](OC(C)=O)[C@@H]1C [RIFAMPIN],0.5,0.25,0.25,,,,,,,,,,,,,,,,,MIC (Pseudomonas aeruginosa [31]): 1020 µg/mL
